According to ChEMBL document CHEMBL1201862, “PubChem BioAssay data set” (2004):
Active and inactive are the calls of the source.

Tests used:
[1] = biological target: Large T antigen (Simian virus 40, UniProt P03070); type: functional, Betapolyomavirus macacae;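 further: Confirmatory-stage PubChem screen for compounds that inhibit SV40 T antigen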
[2] = biological target: T1, Heat shock factor protein 1 (Mus musculus, UniProt P38532); assay: enhancement of HSF1-driven luciferase signal – cell-based, NIH3T3, luminescence, dose retest, confirmation (AID 435004); type: functional;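 further: stress induced by proteasome inhibitor MG132 added 30 min after compound; luciferase reporter driven by HSF1 response element in NIH3T3 cells; actives raise luminescence as potentiators of the MG132 stress response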
T1 sequence (P38532 whole entry): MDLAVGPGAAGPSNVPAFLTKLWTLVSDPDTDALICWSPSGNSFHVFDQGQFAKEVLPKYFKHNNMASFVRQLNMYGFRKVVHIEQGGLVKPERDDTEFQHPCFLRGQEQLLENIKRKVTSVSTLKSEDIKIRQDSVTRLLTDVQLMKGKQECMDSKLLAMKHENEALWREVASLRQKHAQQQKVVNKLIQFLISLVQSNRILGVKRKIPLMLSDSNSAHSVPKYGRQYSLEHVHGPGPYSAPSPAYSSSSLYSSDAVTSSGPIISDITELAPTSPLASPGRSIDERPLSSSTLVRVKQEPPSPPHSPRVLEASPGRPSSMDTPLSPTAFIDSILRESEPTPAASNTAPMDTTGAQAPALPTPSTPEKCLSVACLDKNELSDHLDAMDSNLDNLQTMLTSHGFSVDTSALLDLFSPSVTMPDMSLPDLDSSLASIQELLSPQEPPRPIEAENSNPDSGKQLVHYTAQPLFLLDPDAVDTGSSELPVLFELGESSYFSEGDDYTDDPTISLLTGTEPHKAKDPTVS

[3] = tested on: INS1; assay: INS-1E survival protection against cytokine death – cell-based, luminescence, retest, dose response (AID 449756); type: functional; conditions: Rattus norvegicus;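 further: cell death triggered by IL-1 beta plus TNF-alpha plus IFN-gamma mixture; protective hits raise ATP signal compared with cytokine alone wells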
[4] = reduction of Shn3 3'UTR-driven luciferase in osteoblasts – cell-based, Clone20 osteoblasts, firefly luciferase, cherry-picked, dose response (AID 624132); type: functional;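 further: firefly luciferase luminescence from reporter carrying the Shn3 3'UTR in osteoblasts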
[5] = non-specific 3'UTR reporter inhibition in Clone20-Shn3RL – cell-based, Renilla luciferase, cherry-picked, counter-screen for Shn3 inhibitor project, dose response (AID 624133); type: functional
[6] = biological target: FAD-linked sulfhydryl oxidase ALR (Homo sapiens, UniProt P55789); assay: ALR-catalysed DTT oxidation blockers – biochemical, H2O2 detection, luminescence, cherry-pick, dose response (AID 493248)
Sequence of FAD-linked sulfhydryl oxidase ALR (P55789 whole entry): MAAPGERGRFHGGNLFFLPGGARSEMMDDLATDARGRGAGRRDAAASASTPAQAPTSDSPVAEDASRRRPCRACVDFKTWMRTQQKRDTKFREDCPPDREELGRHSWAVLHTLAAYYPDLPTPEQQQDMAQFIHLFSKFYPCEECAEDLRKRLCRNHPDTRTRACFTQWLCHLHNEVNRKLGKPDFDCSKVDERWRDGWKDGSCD

[7] = tested on: Streptococcus sp. 'group A'; assay: Streptococcus pyogenes SK(-)GAS viability under kanamycin – luminescence, BacTiterGlo, confirmation, counter-screen for streptokinase expression inhibitor project, dose response (AID 1900); type: functional, organism-based
[8] = tested on: Streptococcus; assay: GAS UMAA2166 growth inhibition – luminescence, BacTiterGlo, counter-screen for streptokinase expression inhibitor project, dose response (AID 1915); type: functional, organism-based;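 further: potency for reduction of bacterial viability or growth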
[9] = cells; type: functional
[10] = biological target: T2, Leucine aminopeptidase (Plasmodium falciparum 3D7, UniProt Q8IL11); assay: P. falciparum M17LAP inhibitors, primary screen, biochemical, fluorogenic H-Leu-NHMec substrate, 1536-well (AID 1619); type: functional
T2 sequence (Q8IL11 whole entry): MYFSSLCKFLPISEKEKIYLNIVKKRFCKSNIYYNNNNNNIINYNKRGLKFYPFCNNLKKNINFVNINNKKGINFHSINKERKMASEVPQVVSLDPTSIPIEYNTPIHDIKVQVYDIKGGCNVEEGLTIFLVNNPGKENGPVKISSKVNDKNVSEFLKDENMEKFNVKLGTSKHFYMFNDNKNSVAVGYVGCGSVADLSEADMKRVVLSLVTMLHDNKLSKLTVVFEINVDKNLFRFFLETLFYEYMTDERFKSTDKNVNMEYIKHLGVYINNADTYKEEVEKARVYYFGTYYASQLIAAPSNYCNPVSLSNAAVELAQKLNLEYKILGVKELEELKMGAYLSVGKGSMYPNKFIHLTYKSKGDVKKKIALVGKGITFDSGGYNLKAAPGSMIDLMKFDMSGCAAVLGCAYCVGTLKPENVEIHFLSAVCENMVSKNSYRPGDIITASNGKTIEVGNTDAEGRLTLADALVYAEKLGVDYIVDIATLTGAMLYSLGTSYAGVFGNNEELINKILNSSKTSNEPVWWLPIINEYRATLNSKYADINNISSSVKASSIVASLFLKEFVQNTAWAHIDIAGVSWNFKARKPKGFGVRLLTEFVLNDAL

[11] = biological target: T3, Aminopeptidase N (Plasmodium falciparum FcB1/Columbia, UniProt O96935); assay: malaria alanyl aminopeptidase activity blockers – biochemical, fluorogenic H-Leu-NHMec substrate, 1536-well (AID 1445); set-up: species or system Plasmodium falciparum 3D7, 3D7
T3 sequence (O96935 whole entry): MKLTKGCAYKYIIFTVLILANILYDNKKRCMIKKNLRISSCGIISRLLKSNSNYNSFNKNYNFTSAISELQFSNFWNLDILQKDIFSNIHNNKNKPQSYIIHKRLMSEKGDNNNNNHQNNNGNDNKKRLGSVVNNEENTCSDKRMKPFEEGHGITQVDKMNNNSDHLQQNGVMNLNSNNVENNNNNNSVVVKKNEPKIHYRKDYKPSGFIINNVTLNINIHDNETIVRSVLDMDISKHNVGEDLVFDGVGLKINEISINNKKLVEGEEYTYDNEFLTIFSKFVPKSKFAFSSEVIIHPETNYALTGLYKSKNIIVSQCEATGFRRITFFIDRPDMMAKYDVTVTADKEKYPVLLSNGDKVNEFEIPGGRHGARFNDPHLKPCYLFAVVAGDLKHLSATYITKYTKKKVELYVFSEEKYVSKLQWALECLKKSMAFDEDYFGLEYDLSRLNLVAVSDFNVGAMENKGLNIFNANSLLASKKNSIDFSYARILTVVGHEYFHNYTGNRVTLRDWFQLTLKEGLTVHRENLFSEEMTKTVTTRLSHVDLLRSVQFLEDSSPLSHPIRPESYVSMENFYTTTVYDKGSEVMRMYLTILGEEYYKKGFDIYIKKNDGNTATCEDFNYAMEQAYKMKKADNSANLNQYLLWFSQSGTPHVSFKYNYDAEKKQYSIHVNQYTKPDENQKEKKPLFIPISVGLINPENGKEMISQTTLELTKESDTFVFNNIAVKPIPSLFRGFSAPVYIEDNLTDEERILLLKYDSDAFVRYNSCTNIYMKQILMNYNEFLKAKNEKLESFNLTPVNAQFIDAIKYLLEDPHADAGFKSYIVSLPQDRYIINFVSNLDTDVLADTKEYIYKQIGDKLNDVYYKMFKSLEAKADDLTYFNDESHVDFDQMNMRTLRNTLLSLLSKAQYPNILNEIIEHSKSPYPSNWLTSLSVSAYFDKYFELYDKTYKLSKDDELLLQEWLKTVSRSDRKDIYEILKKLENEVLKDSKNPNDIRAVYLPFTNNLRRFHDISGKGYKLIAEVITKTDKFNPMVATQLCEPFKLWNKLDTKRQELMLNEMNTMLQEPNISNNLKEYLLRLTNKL

[12] = biological target: Paired box protein Pax-8 (Homo sapiens, UniProt Q06710); assay: PAX8 transcriptional activity inhibition in RMG-I – RMG-I cells, luciferase, cherry-pick, dose response (AID 687027); type: functional, cell-based;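 further: luciferase reporter driven by Pax8 target thyroperoxidase promoter measured by SteadyGlo luminescence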
Sequence of Paired box protein Pax-8 (Q06710 whole entry): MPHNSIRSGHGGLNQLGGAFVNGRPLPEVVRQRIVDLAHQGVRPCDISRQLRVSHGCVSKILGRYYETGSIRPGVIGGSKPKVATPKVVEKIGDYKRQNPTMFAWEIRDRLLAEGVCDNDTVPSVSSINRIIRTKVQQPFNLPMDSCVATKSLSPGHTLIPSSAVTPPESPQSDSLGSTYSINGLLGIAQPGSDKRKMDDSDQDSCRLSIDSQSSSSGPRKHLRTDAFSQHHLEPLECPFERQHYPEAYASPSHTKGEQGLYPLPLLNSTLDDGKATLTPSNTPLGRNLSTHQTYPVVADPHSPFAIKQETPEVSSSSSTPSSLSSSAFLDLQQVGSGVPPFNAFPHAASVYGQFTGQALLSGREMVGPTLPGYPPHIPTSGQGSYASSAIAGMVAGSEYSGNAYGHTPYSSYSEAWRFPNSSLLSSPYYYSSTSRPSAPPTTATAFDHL

[13] = microbe, parasite or virus in culture; type: functional; conditions: Mycobacterium tuberculosis
[14] = biological target: T4, Replicative DNA helicase DnaB (Mycobacterium tuberculosis, UniProt P9WMR3); assay: DnaB intein splicing inhibitors, dose response, biochemical, cell-free fluorescence (AID 449749); type: functional
T4 sequence (P9WMR3 whole entry): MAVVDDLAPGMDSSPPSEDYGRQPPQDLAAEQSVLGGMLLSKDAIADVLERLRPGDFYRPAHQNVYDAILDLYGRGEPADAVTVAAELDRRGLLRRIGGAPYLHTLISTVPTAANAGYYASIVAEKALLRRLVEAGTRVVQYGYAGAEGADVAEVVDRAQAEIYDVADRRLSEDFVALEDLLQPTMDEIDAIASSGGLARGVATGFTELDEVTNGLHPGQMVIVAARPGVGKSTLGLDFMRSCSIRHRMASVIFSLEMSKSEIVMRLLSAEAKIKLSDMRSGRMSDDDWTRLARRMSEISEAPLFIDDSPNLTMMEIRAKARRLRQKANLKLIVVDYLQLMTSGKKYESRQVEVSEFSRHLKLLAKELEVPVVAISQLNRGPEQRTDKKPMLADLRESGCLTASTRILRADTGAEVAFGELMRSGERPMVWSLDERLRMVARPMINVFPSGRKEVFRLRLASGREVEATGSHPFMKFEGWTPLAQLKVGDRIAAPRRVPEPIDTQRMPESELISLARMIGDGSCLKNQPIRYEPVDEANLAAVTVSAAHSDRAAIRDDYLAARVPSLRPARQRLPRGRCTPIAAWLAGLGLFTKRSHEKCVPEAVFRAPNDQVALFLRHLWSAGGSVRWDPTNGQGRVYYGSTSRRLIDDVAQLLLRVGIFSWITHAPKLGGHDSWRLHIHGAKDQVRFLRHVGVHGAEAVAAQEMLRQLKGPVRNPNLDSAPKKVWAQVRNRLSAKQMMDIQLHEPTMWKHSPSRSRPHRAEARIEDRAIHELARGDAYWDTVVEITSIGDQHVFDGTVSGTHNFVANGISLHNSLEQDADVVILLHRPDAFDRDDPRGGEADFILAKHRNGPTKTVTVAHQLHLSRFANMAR

[15] = biological target: T5, Protein RecA (Mycobacterium tuberculosis, UniProt P9WHJ3); assay: Fluorescence Cell-Free Homogeneous Dose Retest to Identify Inhibitors of RecA-Intein Splicing Activity. [Related pubchem assays (depositor defined):AID2097, AID2223, AID489010, AID492950]; type: functional
T5 sequence (P9WHJ3 whole entry): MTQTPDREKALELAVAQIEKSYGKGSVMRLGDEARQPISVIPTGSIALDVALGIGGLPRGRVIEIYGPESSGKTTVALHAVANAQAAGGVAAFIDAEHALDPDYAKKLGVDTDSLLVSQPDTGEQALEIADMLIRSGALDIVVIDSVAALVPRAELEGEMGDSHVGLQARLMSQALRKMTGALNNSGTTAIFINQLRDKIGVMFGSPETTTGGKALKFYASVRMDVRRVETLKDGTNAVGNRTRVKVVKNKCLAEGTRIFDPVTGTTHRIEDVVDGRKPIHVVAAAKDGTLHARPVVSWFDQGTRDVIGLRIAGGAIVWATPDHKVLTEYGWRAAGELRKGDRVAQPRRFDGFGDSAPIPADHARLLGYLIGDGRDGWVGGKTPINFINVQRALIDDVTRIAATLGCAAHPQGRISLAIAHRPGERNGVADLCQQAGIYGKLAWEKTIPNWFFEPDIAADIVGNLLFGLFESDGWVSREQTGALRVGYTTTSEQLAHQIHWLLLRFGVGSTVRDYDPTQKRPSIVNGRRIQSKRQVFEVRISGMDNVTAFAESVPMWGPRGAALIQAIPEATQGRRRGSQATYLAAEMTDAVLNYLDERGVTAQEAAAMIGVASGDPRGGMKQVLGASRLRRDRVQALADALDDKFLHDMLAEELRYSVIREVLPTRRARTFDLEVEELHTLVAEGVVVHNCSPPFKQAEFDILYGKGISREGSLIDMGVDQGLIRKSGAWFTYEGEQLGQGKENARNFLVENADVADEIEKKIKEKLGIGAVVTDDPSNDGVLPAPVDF

[16] = tested on: SN12K1; assay: cells; type: functional; conditions: Homo sapiens
[17] = tested on: P388; assay: cells; type: functional; conditions: Mus musculus;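 further: compound exposure lasted 48 hours before growth was measured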

Sequence of Large T antigen (P03070 whole entry): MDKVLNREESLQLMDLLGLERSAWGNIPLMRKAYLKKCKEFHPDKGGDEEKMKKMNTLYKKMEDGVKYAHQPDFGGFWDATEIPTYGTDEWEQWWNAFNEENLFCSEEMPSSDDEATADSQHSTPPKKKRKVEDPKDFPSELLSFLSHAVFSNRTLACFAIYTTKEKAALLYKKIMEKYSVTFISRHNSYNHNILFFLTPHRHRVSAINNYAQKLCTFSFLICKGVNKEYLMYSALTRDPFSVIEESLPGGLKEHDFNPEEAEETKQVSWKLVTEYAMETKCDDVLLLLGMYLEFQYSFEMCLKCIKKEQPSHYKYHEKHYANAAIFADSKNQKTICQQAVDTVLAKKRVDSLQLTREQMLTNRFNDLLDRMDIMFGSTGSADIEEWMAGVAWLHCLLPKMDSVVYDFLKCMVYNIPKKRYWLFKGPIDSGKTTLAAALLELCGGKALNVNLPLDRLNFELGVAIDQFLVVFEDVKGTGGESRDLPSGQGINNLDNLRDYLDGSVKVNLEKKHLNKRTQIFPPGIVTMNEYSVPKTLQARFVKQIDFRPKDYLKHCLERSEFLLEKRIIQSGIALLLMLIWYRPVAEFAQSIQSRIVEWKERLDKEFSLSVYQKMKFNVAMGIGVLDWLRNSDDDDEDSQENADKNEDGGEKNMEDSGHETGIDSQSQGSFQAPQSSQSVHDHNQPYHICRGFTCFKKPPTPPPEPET

COc1ccc(CC(=O)N/N=C(\C)CC(=O)Nc2ccc(N(C)C)cc2)cc1OC
IC50 [1]: 10.1 µM (active)

Nc1ccc(Sc2ccccc2CC(=O)O)cc1
IC50 [1]: > 100 µM (active)

Oc1ccc(-c2nc3cnccn3c2Nc2ccc3c(c2)OCCO3)cc1
IC50 [1]: 4.14 µM (active)
EC50 [2]: 11 µM (active)

Clc1ccc(-c2cc(-c3nnc4n3CCCCC4)c3ccccc3n2)cc1
AC50 [3]: 6.17 µM (active)
AC50 [4]: 5.59 µM (active)
AC50 [5]: 11.1 µM (active)

O=C(NNc1c2ccccc2nc2ccccc12)c1cccc(O)c1
AC50 [6]: 0.738 µM (active)

CN1CCCNc2nc3ccccc3nc21
AC50 [6]: 9.27 µM (active)

O=C(Nc1nnc(-c2ccc3c(c2)CCCC3)o1)c1c(F)cccc1F
EC50 [7]: 1.77 µM (active)
EC50 [8]: 7.35 µM (active)
AC50 [6]: 7.99 µM (active)
IC50 [9]: 4.08 µM (active)

COc1cc(/C=C2\SC(=S)N(NS(=O)(=O)c3ccccc3)C2=O)ccc1O
IC50 [10]: 38.8 µM (active)
IC50 [11]: 24.5 µM (active)
IC50 [1]: 14.5 µM (active)

Cc1ccnc(NC(c2ccccn2)c2c(C)[nH]c3ccccc23)c1 (stereo unspecified)
AC50 [6]: 1.39 µM (active)

COc1ccc(C(=O)c2ccc(Cl)c([N+](=O)[O-])c2)cc1
AC50 [6]: 3.95 µM (active)
AC50 [12]: 7.17 µM (active)

Cc1cc(C(=O)CCl)c(C)n1CCc1ccc(Cl)cc1
CC50 [13]: 2.48 µM (active)
EC50 [2]: > 260 µM (inconclusive)
AC50 [14]: 8.7 µM (active)
EC50 [15]: 7.32 µM (active)

CCCCCOc1ccc(/C=N\c2ccc(-c3ccc(/N=C\c4ccc(OCCCCC)cc4)c(OC)c3)cc2OC)cc1
GI50 [16]: > 100 µM (inactive)
GI50 [17]: > 100 µM (inactive)

COc1cccc(N2CCN(C(=O)C3CCCN(S(=O)(=O)c4c[nH]cn4)C3)CC2)c1 (stereo unspecified)
AC50 [6]: 16.8 µM (active)

COc1ccc2[nH]c3ccc(OC)cc3c2c1
AC50 [6]: 8.33 µM (active)

Cc1noc(C)c1C(=O)Nc1ccc(N(C)C)cc1
AC50 [6]: 1.3 µM (active)

Cc1ccc2nccc(C(=O)N3CCCC(Nc4ccc(F)cc4)C3)c2c1 (stereo unspecified)
AC50 [6]: 3.03 µM (active)

CC(=O)Nc1ccc(/C=C/c2ccc(NC(=O)Nc3ccc(/C=C/c4ccc(NC(C)=O)cc4S(=O)(=O)O)c(S(=O)(=O)O)c3)cc2S(=O)(=O)O)c(S(=O)(=O)O)c1
GI50 [16]: > 100 µM (inactive)
GI50 [17]: > 100 µM (inactive)
